Test results as given in patent US20180256673A1, “METHODS FOR TREATING FUNGAL INFECTIONS” (priority 2015, published 2018).
Values after ≈ are worked out from the molar mass of the structure shown. Values joined by “and” are separate entries in the source; they are usually repeats but may differ in a detail not shown here. Identical values can stand only once. Like-named read-outs stand apart in the source and are kept apart here.

Tests used:
C. albicans NRRL Y-477 [1] = format: cell-based, Candida albicans
Protocol: (§1) Spontaneous mutant selection. […] Three individual colonies from each strain were used to start cultures in RPMI. […] One milliliter aliquots were spread onto SDA plates containing drug with sterile glass beads. Starting viable count was enumerated by triplicate plating of serial dilutions of the starting inoculum. […] Glycerol stocks of putative mutant colonies were stored at −80° C. […] Spontaneous mutation frequencies were calculated by dividing the number of resistant colonies on a given plate by the starting inoculum plated. A subset of mutants (weighted heavily towards those selected with CMP1) were then evaluated by MIC and sequencing of FKS gene hot spot regions.

Candida albicans = assay: Broth microdilution of invasive fungal isolates (CLSI M27-A3/M38-A2); format: cell-based; conditions: 251 isolates
[2] = system: C. glabrata ATCC 90030, ATCC 2001; assay: microbe, parasite or virus in culture; format: cell-based, Candida glabrata; conditions: for MIC fold-shift: WT to P20; for MIC: Nakaseomyces glabratus
[3] = system: C. parapsilosis vaginal isolates; assay: Susceptibility testing of VVC clinical isolates at pH 7 and 4 (CLSI M27-A3); format: cell-based, Candida parapsilosis; conditions: 14 isolates, read-out: MIC90
C. krusei ATCC 6258 [4] = assay: Broth microdilution MIC (CLSI), Examples 3 and 4; conditions: Pichia kudriavzevii, ATCC6258, 24 h, read-out: Broth MIC
Protocol: Antifungal susceptibility testing. Candida strains were cultured aerobically at 35° C. on SDA plates or in RPMI 1640 broth (pH 7.0). […] MIC assays were performed in triplicate.

[5] = system: Cryptococcus neoformans var. grubii; assay: Broth microdilution of invasive fungal isolates (CLSI M27-A3/M38-A2); format: cell-based; conditions: 19 isolates
Candida parapsilosis = assay: as above; format: cell-based; conditions: 92 isolates
Aspergillus fumigatus = assay: Broth microdilution of invasive fungal isolates (CLSI M27-A3/M38-A2), MEC; format: cell-based; conditions: 56 isolates
Candida orthopsilosis = assay: Broth microdilution of invasive fungal isolates (CLSI M27-A3/M38-A2); format: cell-based; conditions: 10 isolates
C. albicans NRRL Y-477 [6] = assay: microbe, parasite or virus in culture; format: cell-based, Candida albicans; conditions: for MIC: Candida albicans
[7] = system: C. tropicalis vaginal isolates; assay: Susceptibility testing of VVC clinical isolates at pH 7 and 4 (CLSI M27-A3); format: cell-based; conditions: Candida tropicalis, 13 isolates, read-out: MIC90
C. albicans NRRL Y-477 [8] = assay: Broth microdilution MIC (CLSI), Examples 3 and 4; conditions: Candida albicans
Protocol: Antifungal susceptibility testing. […] MIC assays were performed in triplicate.

C. parapsilosis CP02 [9] = format: cell-based, Candida parapsilosis
Protocol: as §1

[10] = system: C. glabrata vaginal isolates; assay: Susceptibility testing of VVC clinical isolates at pH 7 and 4 (CLSI M27-A3); format: cell-based, Candida glabrata; conditions: Nakaseomyces glabratus, 21 isolates, read-out: MIC90
C. parapsilosis CP02 [11] = assay: microbe, parasite or virus in culture; format: cell-based, Candida parapsilosis; conditions: for MIC: Lodderomyces parapsilosis
[12] = system: C. glabrata ATCC 90030, ATCC 2001; format: cell-based, Candida glabrata; conditions: for Freq. (replicate mutation frequency): replicate plates 1-3; for Plate concentration: SDA, minimum concentration to cleanly inhibit growth
Protocol: as §1

C. krusei ATCC 6258 [13] = format: cell-based, Candida krusei
Protocol: as §1

Candida tropicalis = assay: Broth microdilution of invasive fungal isolates (CLSI M27-A3/M38-A2); format: cell-based; conditions: 51 isolates
[14] = SDA, minimum concentration to cleanly inhibit growth

CC[C@H](C)C[C@H](C)CCCCCCCCC(=O)N[C@H]1C[C@@H](O)[C@@H](NCCN)NC(=O)[C@@H]2[C@@H](O)CCN2C(=O)[C@H]([C@H](O)CCN)NC(=O)[C@H]([C@H](O)[C@@H](O)c2ccc(O)cc2)NC(=O)[C@@H]2C[C@@H](O)CN2C(=O)[C@H]([C@@H](C)O)NC1=O [CAS, caspofungin]
Median mutation frequency (C. albicans NRRL Y-477 [1]): 1.14E−08
Plate concentration (C. albicans NRRL Y-477 [1]; [14]): 0.25 µg/mL
Freq. (replicate mutation frequency) (C. albicans NRRL Y-477 [1]; replicate plates 1-3): 1.25E−08 and 1.14E−08 and 7.81E−09
Cumulative % of isolates inhibited at MIC 0.015 μg/mL (Candida albicans): (31.9) %
Cumulative % of isolates inhibited at MIC 0.03 μg/mL (Candida albicans): (85.7) %
Cumulative % of isolates inhibited at MIC 0.06 μg/mL (Candida albicans): (99.2) %
Cumulative % of isolates inhibited at MIC 0.12 μg/mL (Candida albicans): (100.0) %
Cumulative % of isolates inhibited at MIC ≤0.008 μg/mL (Candida albicans): 1.6%
Number of isolates inhibited at MIC 0.015 μg/mL (Candida albicans): 76
Number of isolates inhibited at MIC 0.03 μg/mL (Candida albicans): 135
Number of isolates inhibited at MIC 0.06 μg/mL (Candida albicans): 34
Number of isolates inhibited at MIC 0.12 μg/mL (Candida albicans): 2
Number of isolates inhibited at MIC ≤0.008 μg/mL (Candida albicans): 4
MIC50 (Candida albicans; Candida albicans, read-out: MIC50): 0.03 µg/mL (≈ 0.0274 µM)
MIC90 (Candida albicans; Candida albicans, read-out: MIC90): 0.06 µg/mL (≈ 0.0549 µM)
MIC fold-shift ([2]; ATCC 2001): 8
MIC fold-shift ([2]; ATCC 90030): 128
MIC ([2]; 48 h, ATCC 90030 P20-1, selecting drug ANID, Fks2 HS1 D666I, 48 h read): 2 µg/mL (≈ 1.83 µM)
MIC ([2]; 48 h, ATCC 90030 P20-1, selecting drug CAS, Fks2 HS1 F659I D666Y, 48 h read): 32 µg/mL (≈ 29.3 µM)
MIC ([2]; ATCC 2001 P20-2, selecting drug ANID, Fks1 HS1 D632Y): 2 µg/mL (≈ 1.83 µM)
MIC ([2]; ATCC 2001 P20-2, selecting drug CAS): 2 µg/mL (≈ 1.83 µM)
MIC ([2]; ATCC 2001 P20-2, selecting drug CMP1): 1 µg/mL (≈ 0.915 µM)
MIC ([2]; ATCC 90030 P20-2, selecting drug CMP1): 1 µg/mL (≈ 0.915 µM)
MIC ([2]; read-out: MIC P20, ATCC 2001, total population after 20 passages with the selecting drug, MIC of selecting drug): 2 µg/mL
MIC ([2]; read-out: MIC P20, ATCC 90030, total population after 20 passages with the selecting drug, MIC of selecting drug): 32 µg/mL
MIC90 ([3]; pH 4, 24 h): 1 µg/mL (≈ 0.915 µM)
MIC90 ([3]; pH 4, 48 h): 4 µg/mL (≈ 3.66 µM)
MIC90 ([3]; pH 7, 24 h): 1 µg/mL (≈ 0.915 µM)
MIC90 ([3]; pH 7, 48 h): 2 µg/mL (≈ 1.83 µM)
MIC (C. krusei ATCC 6258 [4]): 0.5 µg/mL (≈ 0.457 µM)
Cumulative % of isolates inhibited at MIC 8 μg/mL [5]: (21.1) %
Cumulative % of isolates inhibited at MIC >8 μg/mL [5]: (100.0) %
Number of isolates inhibited at MIC 8 μg/mL [5]: 4
Number of isolates inhibited at MIC >8 μg/mL [5]: 15
MIC50 ([5]; Cryptococcus neoformans, read-out: MIC50): 8 µg/mL (≈ 7.32 µM)
MIC90 ([5]; Cryptococcus neoformans, read-out: MIC90): 8 µg/mL (≈ 7.32 µM)
Cumulative % of isolates inhibited at MIC 0.25 μg/mL (Candida parapsilosis): (33.7) %
Cumulative % of isolates inhibited at MIC 0.5 μg/mL (Candida parapsilosis): (87.0) %
Cumulative % of isolates inhibited at MIC 1 μg/mL (Candida parapsilosis): (98.9) %
Cumulative % of isolates inhibited at MIC 2 μg/mL (Candida parapsilosis): (100.0) %
Number of isolates inhibited at MIC 0.25 μg/mL (Candida parapsilosis): 31
Number of isolates inhibited at MIC 0.5 μg/mL (Candida parapsilosis): 49
Number of isolates inhibited at MIC 1 μg/mL (Candida parapsilosis): 11
Number of isolates inhibited at MIC 2 μg/mL (Candida parapsilosis): 1
MIC50 (Candida parapsilosis; Lodderomyces parapsilosis, read-out: MIC50): 0.5 µg/mL (≈ 0.457 µM)
MIC90 (Candida parapsilosis; Lodderomyces parapsilosis, read-out: MIC90): 1 µg/mL (≈ 0.915 µM)
Cumulative % of isolates inhibited at MEC 0.015 μg/mL (Aspergillus fumigatus): (32.1) %
Cumulative % of isolates inhibited at MEC 0.03 μg/mL (Aspergillus fumigatus): (94.6) %
Cumulative % of isolates inhibited at MEC 0.06 μg/mL (Aspergillus fumigatus): (100.0) %
Number of isolates inhibited at MEC 0.015 μg/mL (Aspergillus fumigatus): 18
Number of isolates inhibited at MEC 0.03 μg/mL (Aspergillus fumigatus): 35
Number of isolates inhibited at MEC 0.06 μg/mL (Aspergillus fumigatus): 3
Cumulative % of isolates inhibited at MIC 0.06 μg/mL (Candida orthopsilosis): (10.0) %
Cumulative % of isolates inhibited at MIC 0.12 μg/mL (Candida orthopsilosis): (40.0) %
Cumulative % of isolates inhibited at MIC 0.25 μg/mL (Candida orthopsilosis): (70.0) %
Cumulative % of isolates inhibited at MIC 0.5 μg/mL (Candida orthopsilosis): (100.0) %
Number of isolates inhibited at MIC 0.06 μg/mL (Candida orthopsilosis): 1
Number of isolates inhibited at MIC 0.12 μg/mL (Candida orthopsilosis): 3
Number of isolates inhibited at MIC 0.25 μg/mL (Candida orthopsilosis): 3
Number of isolates inhibited at MIC 0.5 μg/mL (Candida orthopsilosis): 3
MIC50 (Candida orthopsilosis; Lodderomyces orthopsilosis, read-out: MIC50): 0.25 µg/mL (≈ 0.229 µM)
MIC90 (Candida orthopsilosis; Lodderomyces orthopsilosis, read-out: MIC90): 0.5 µg/mL (≈ 0.457 µM)
MIC (C. albicans NRRL Y-477 [6]; NRRLY477, 48 h, NRRL Y-477 P20-1, selecting drug ANID, Fks1 HS1 S645Y, 48 h read): 2 µg/mL (≈ 1.83 µM)
MIC (C. albicans NRRL Y-477 [6]; NRRLY477, 48 h, NRRL Y-477 P20-1, selecting drug CMP1, 48 h read): 0.5 µg/mL (≈ 0.457 µM)
MIC (C. albicans NRRL Y-477 [6]; NRRLY477, NRRL Y-477 P20-1, selecting drug CAS): 0.25 µg/mL (≈ 0.229 µM)
MIC (C. albicans NRRL Y-477 [6]; NRRLY477, read-out: MIC P20, NRRL Y-477, total population after 20 passages with the selecting drug, MIC of selecting drug): 0.25 µg/mL
MIC fold-shift (C. albicans NRRL Y-477 [6]; NRRL Y-477, WT to P20): 1
MIC90 ([7]; pH 4, 24 h): 1 µg/mL (≈ 0.915 µM)
MIC90 ([7]; pH 4, 48 h): 2 µg/mL (≈ 1.83 µM)
MIC90 ([7]; pH 7, 24 h): 1 µg/mL (≈ 0.915 µM)
MIC90 ([7]; pH 7, 48 h): 2 µg/mL (≈ 1.83 µM)
MIC (C. albicans NRRL Y-477 [8]; NRRLY477): 0.5 µg/mL (≈ 0.457 µM)
MIC (C. albicans NRRL Y-477 [8]; NRRLY477, 24 h, read-out: Broth MIC): 0.25 µg/mL (≈ 0.229 µM)
Median mutation frequency (C. parapsilosis CP02 [9]): <1.04E−08
Plate concentration (C. parapsilosis CP02 [9]; [14]): 1 µg/mL
Freq. (replicate mutation frequency) (C. parapsilosis CP02 [9]; replicate plates 1-3): <1.04E−08 (2×) and <9.62E−09
MIC90 ([10]; pH 4, 24 h): 1 µg/mL (≈ 0.915 µM)
MIC90 ([10]; pH 4, 48 h): 2 µg/mL (≈ 1.83 µM)
MIC90 ([10]; pH 7, 24 h): 1 µg/mL (≈ 0.915 µM)
MIC90 ([10]; pH 7, 48 h): 2 µg/mL (≈ 1.83 µM)
MIC fold-shift (C. parapsilosis CP02 [11]; CP02, WT to P20): 2
MIC (C. parapsilosis CP02 [11]; CP02, CP02 P20-1, selecting drug ANID): 0.5 µg/mL (≈ 0.457 µM)
MIC (C. parapsilosis CP02 [11]; CP02, CP02 P20-1, selecting drug CAS): 1 µg/mL (≈ 0.915 µM)
MIC (C. parapsilosis CP02 [11]; CP02, CP02 P20-1, selecting drug CMP1): 1 µg/mL (≈ 0.915 µM)
MIC (C. parapsilosis CP02 [11]; CP02, read-out: MIC P20, CP02, total population after 20 passages with the selecting drug, MIC of selecting drug): 1 µg/mL
Median mutation frequency ([12]; ATCC 2001): 3.16E−08
Freq. (replicate mutation frequency) ([12]; ATCC 2001): 3.16E−08 and 2.92E−08 and 3.50E−08
Median mutation frequency ([12]; ATCC 90030): 3.45E−07
Freq. (replicate mutation frequency) ([12]; ATCC 90030): 4.85E−07 and 3.45E−07 and 2.57E−07
Plate concentration ([12]; ATCC 2001): 0.5 µg/mL
Plate concentration ([12]; ATCC 90030): 0.5 µg/mL
Median mutation frequency (C. krusei ATCC 6258 [13]): <3.86E−09
Plate concentration (C. krusei ATCC 6258 [13]; [14]): 0.5 µg/mL
Freq. (replicate mutation frequency) (C. krusei ATCC 6258 [13]; replicate plates 1-3): <3.86E−09 (2×) and 3.51E−09
Cumulative % of isolates inhibited at MIC 0.015 μg/mL (Candida tropicalis): (23.5) %
Cumulative % of isolates inhibited at MIC 0.03 μg/mL (Candida tropicalis): (68.6) %
Cumulative % of isolates inhibited at MIC 0.06 μg/mL (Candida tropicalis): (98.0) %
Cumulative % of isolates inhibited at MIC 0.12 μg/mL (Candida tropicalis): (100.0) %
Number of isolates inhibited at MIC 0.015 μg/mL (Candida tropicalis): 12
Number of isolates inhibited at MIC 0.03 μg/mL (Candida tropicalis): 23
Number of isolates inhibited at MIC 0.06 μg/mL (Candida tropicalis): 15
Number of isolates inhibited at MIC 0.12 μg/mL (Candida tropicalis): 1
MIC50 (Candida tropicalis; Candida tropicalis, read-out: MIC50): 0.03 µg/mL (≈ 0.0274 µM)
MIC90 (Candida tropicalis; Candida tropicalis, read-out: MIC90): 0.06 µg/mL (≈ 0.0549 µM)
